Reference: PubChem BioAssay (NCI)
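Values below derive from 48-hour exposures of cells grown in 96-well plates, with endpoints linearly interpolated between the two concentrations bracketing the appropriate inhibition level. The concentration for 50% growth inhibition is given as GI50. TGI marks complete inhibition of growth.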

What was measured:
Experiment in all cases: growth of human tumour cells (NCI), 48 h; in the data active = GI50 below about 0.43 µM; inactive = the rest
A498 renal = test system: A498 renal
A549 NSCLC = test system: A549 NSCLC
CAKI-1 renal = test system: CAKI-1 renal
CCRF-CEM leukemia = test system: CCRF-CEM leukemia
COLO 205 colon = test system: COLO 205 colon
DU-145 prostate = test system: DU-145 prostate
EKVX NSCLC = test system: EKVX NSCLC
HCC-2998 colon = test system: HCC-2998 colon
HCT-116 colon = test system: HCT-116 colon
HCT-15 colon = test system: HCT-15 colon
HL-60(TB) leukemia = test system: HL-60(TB) leukemia
HOP-62 NSCLC = test system: HOP-62 NSCLC
HOP-92 NSCLC = test system: HOP-92 NSCLC
IGROV1 ovarian = test system: IGROV1 ovarian
K-562 leukemia = test system: K-562 leukemia
KM12 colon = test system: KM12 colon
M14 melanoma = test system: M14 melanoma
MALME-3M melanoma = test system: MALME-3M melanoma
MCF7 breast = test system: MCF7 breast
MDA-MB-231 breast = test system: MDA-MB-231 breast
MDA-MB-435 = test system: MDA-MB-435
MOLT-4 leukemia = test system: MOLT-4 leukemia
NCI-H226 lung = test system: NCI-H226 lung
NCI-H23 lung = test system: NCI-H23 lung
NCI-H460 lung = test system: NCI-H460 lung
NCI-H522 lung = test system: NCI-H522 lung
NCI/ADR-RES ovarian = test system: NCI/ADR-RES ovarian
OVCAR-3 ovarian = test system: OVCAR-3 ovarian
OVCAR-4 ovarian = test system: OVCAR-4 ovarian
OVCAR-5 ovarian = test system: OVCAR-5 ovarian
OVCAR-8 ovarian = test system: OVCAR-8 ovarian
PC-3 prostate = test system: PC-3 prostate
RPMI-8226 leukemia = test system: RPMI-8226 leukemia
RXF 393 renal = test system: RXF 393 renal
SF-268 CNS = test system: SF-268 CNS
SF-295 CNS = test system: SF-295 CNS
SF-539 CNS = test system: SF-539 CNS
SK-MEL-2 melanoma = test system: SK-MEL-2 melanoma
SK-MEL-28 melanoma = test system: SK-MEL-28 melanoma
SK-MEL-5 melanoma = test system: SK-MEL-5 melanoma
SN12C renal = test system: SN12C renal
SNB-19 CNS = test system: SNB-19 CNS
SNB-75 CNS = test system: SNB-75 CNS
SR leukemia = test system: SR leukemia
SW-620 colon = test system: SW-620 colon
T-47D breast = test system: T-47D breast
TK-10 renal = test system: TK-10 renal
U251 CNS = test system: U251 CNS
UACC-257 melanoma = test system: UACC-257 melanoma
UO-31 renal = test system: UO-31 renal

C#C[C@]1(O)CC[C@H]2[C@@H]3CC=C4c5sc(-c6ccc(O)c(O)c6)nc5CC[C@]4(C)[C@H]3CC[C@@]21C
14.7 µM: TGI (HCC-2998 colon)
inactive: GI50 (A498 renal) 1.76 µM | GI50 (A549 NSCLC) 3.33 µM | GI50 (CAKI-1 renal) 2.98 µM | GI50 (CCRF-CEM leukemia) 0.764 µM | GI50 (COLO 205 colon) 2.42 µM | GI50 (DU-145 prostate) 3.03 µM | GI50 (EKVX NSCLC) 2.14 µM | GI50 (HCC-2998 colon) 3.67 µM | GI50 (HCT-116 colon) 1.23 µM | GI50 (HCT-15 colon) 1.26 µM | GI50 (HL-60(TB) leukemia) 1.77 µM | GI50 (HOP-62 NSCLC) 3.91 µM | GI50 (HOP-92 NSCLC) 3.78 µM | GI50 (IGROV1 ovarian) 4.18 µM | GI50 (K-562 leukemia) 1.21 µM | GI50 (KM12 colon) 2.97 µM | GI50 (M14 melanoma) 2.09 µM | GI50 (MALME-3M melanoma) 1.63 µM | GI50 (MCF7 breast) 1.09 µM | GI50 (MDA-MB-231 breast) 2.97 µM | GI50 (MDA-MB-435) 3.11 µM | GI50 (MOLT-4 leukemia) 0.435 µM | GI50 (NCI-H226 lung) 2.22 µM | GI50 (NCI-H23 lung) 2.76 µM | GI50 (NCI-H460 lung) 3.13 µM | GI50 (NCI-H522 lung) 1.69 µM | GI50 (NCI/ADR-RES ovarian) 2.81 µM | GI50 (OVCAR-3 ovarian) 2.92 µM | GI50 (OVCAR-4 ovarian) 3.55 µM | GI50 (OVCAR-5 ovarian) 3.04 µM | GI50 (OVCAR-8 ovarian) 3.3 µM | GI50 (PC-3 prostate) 0.833 µM | GI50 (SF-268 CNS) 2.47 µM | GI50 (SK-MEL-2 melanoma) 2.93 µM | GI50 (SK-MEL-28 melanoma) 1.39 µM | GI50 (SK-MEL-5 melanoma) 2.13 µM | GI50 (SN12C renal) 3.03 µM | GI50 (SNB-19 CNS) 2.09 µM | GI50 (SR leukemia) 0.659 µM | GI50 (SW-620 colon) 2.64 µM | GI50 (T-47D breast) 3.27 µM | GI50 (TK-10 renal) 9.21 µM | GI50 (U251 CNS) 0.68 µM | GI50 (UACC-257 melanoma) 2 µM | GI50 (UO-31 renal) 1.43 µM
4.23 µM: TGI (A498 renal)
55 µM: TGI (EKVX NSCLC) | TGI (KM12 colon)
2.87 µM: TGI (HCT-116 colon)
1.22 µM: TGI (SF-295 CNS)
12 µM: TGI (SK-MEL-2 melanoma)
> 100 µM: TGI (A549 NSCLC) | TGI (CCRF-CEM leukemia) | TGI (DU-145 prostate) | TGI (HL-60(TB) leukemia) | TGI (HOP-62 NSCLC) | TGI (HOP-92 NSCLC) | TGI (IGROV1 ovarian) | TGI (K-562 leukemia) | TGI (MDA-MB-231 breast) | TGI (MOLT-4 leukemia) | TGI (NCI-H226 lung) | TGI (NCI-H23 lung) | TGI (NCI/ADR-RES ovarian) | TGI (OVCAR-4 ovarian) | TGI (OVCAR-5 ovarian) | TGI (PC-3 prostate) | TGI (RPMI-8226 leukemia) | TGI (SF-268 CNS) | TGI (SN12C renal) | TGI (SR leukemia) | TGI (SW-620 colon) | TGI (TK-10 renal)
0.658 µM: TGI (RXF 393 renal)
4.19 µM: TGI (SK-MEL-28 melanoma)
6.06 µM: TGI (MCF7 breast)
5.81 µM: TGI (COLO 205 colon)
4.42 µM: TGI (U251 CNS)
12.9 µM: TGI (UO-31 renal)
5.87 µM: TGI (M14 melanoma)
5.91 µM: TGI (UACC-257 melanoma)
15.1 µM: TGI (CAKI-1 renal)
4.8 µM: TGI (MALME-3M melanoma)
13.2 µM: TGI (MDA-MB-435)
5.15 µM: TGI (SK-MEL-5 melanoma)
16 µM: TGI (OVCAR-3 ovarian)
9.95 µM: TGI (SNB-75 CNS)
1.67 µM: TGI (SF-539 CNS)
22.1 µM: TGI (SNB-19 CNS)
3.64 µM: TGI (NCI-H522 lung)
14.5 µM: TGI (OVCAR-8 ovarian)
30.8 µM: TGI (NCI-H460 lung)
44.7 µM: TGI (T-47D breast)
4.25 µM: TGI (HCT-15 colon)
active: GI50 (RPMI-8226 leukemia) 0.348 µM | GI50 (RXF 393 renal) 0.157 µM | GI50 (SF-295 CNS) 0.303 µM | GI50 (SF-539 CNS) 0.333 µM | GI50 (SNB-75 CNS) 0.339 µM
